Measured values from patent publication US6800638B2, “Tetrahydropyridine derivatives, their preparation and their use as cell proliferation inhibitors” (Hoffman-La Roche Inc., priority 2000, dated 2004).

Test system: HDAC
Test: HDAC inhibition assay with aminocoumarin derivative of omega-acetylated lysine as substrate
Type: biochemical
Conditions: compound concentration 10 nM; protocol of Hoffmann et al. 1999
Experimental: To determine the HDAC inhibitory properties of the compounds of the invention an assay was performed using an aminocoumarin derivative of an omega-acetylated lysine as substrate for the enzyme. This assay has been described in detail by Hoffmann, K., et al., Nucleic Acids Res. 27 (1999) 2057-2058. Using the protocol described therein, the inhibitory effect of representative compounds was determined at a concentration of 10 nM.

Structure (SMILES)	Inhibitory effect at 10 nM in % [%]
CCOc1cc2c(cc1OCC)CN(CCCCCCCC(=O)NO)CC2 [Example 5, 8-(6,7-Diethoxy-3,4-dihydro-1H-isoquinolin-2-yl)-octanoic acid hydroxyamide]	26
COc1cc2c(cc1OC)C(c1ccccc1)N(CCCCCCCC(=O)NO)CC2 (stereo not shown) [Example 6, 8-(6,7-dimethoxy-1-phenyl-3,4-dihydro-1H-isoquinolin-2-yl)-octanoic acid hydroxyamide]	26
O=C(CCCCCCCN1CCc2c([nH]c3ccccc23)C1)NO [Example 7, 8-(1,3,4,9-tetrahydro-β-carbolin-2-yl)-octanoic acid hydroxyamide]	26
O=C(CCCCCCCN1CCc2ccccc2C1)NO [Example 1, 8-(3,4-Dihydro-1H-isoquinolin-2-yl)-octanoic acid hydroxyamide]	54
